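Each compound was tested at five concentrations against cells in 96-well plates for 48 hours. TGI denotes the concentration required for complete inhibition of growth.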

This is an account of results in PubChem BioAssay (NCI).

Common to all, as to assay: NCI anticancer screen, dose series, 48 h
Assay [1] has as its system NCI-H522 lung.
For assay [2], the system named is RXF 393 renal.
Assay [3] concerns SW-620 colon.
The test system of assay [4] is MDA-MB-435.
The test system of assay [5] is CAKI-1 renal.
Assay [6] concerns HCT-15 colon.
In assay [7] the test system is OVCAR-3 ovarian.
The subject of assay [8] is K-562 leukemia.
The test system of assay [9] is TK-10 renal.
Assay [10] concerns T-47D breast.

Regarding `C=CCN(c1cc(OC)c2[nH]cc(C)c2c1[N+](=O)[O-])S(C)(=O)=O`, the TGI in [1], in assay [2], in [3], in assay [4], in assay [5] and in assay [6] was above 100 µM each time. Also, the TGI in [7], in assay [8], in assay [9] and in assay [10] was above 100 µM each time.

Regarding `CCOC(=O)Cn1c(=O)c2cc(-c3ccccc3)cc3c(Cl)nc4c(OC)c(OC)cc1c4c32`, the TGI in [1] was 39.4 µM; in assay [2], 30.7 µM; in assay [3], above 61.2 µM; in [4], 38.3 µM; in [5], above 100 µM; in assay [6], 32.2 µM. Also, the TGI in assay [7] is 60.1 µM; in [8], above 55 µM; in assay [9], 99.4 µM; in assay [10], above 100 µM.

For `Oc1cccc(-c2cn3cc(C(F)(F)F)ccc3n2)c1`, the TGI is 35.4 µM in [1]; 50.2 µM in assay [2]; above 100 µM in assay [3]; above 100 µM in assay [4]; above 100 µM in assay [5]; above 100 µM in assay [6]. Further, the TGI in assay [7] was 86.7 µM; in assay [8], above 100 µM; in assay [9], 73.3 µM; in assay [10] it was 21.2 µM.

For the compound `Cc1ccc(C(=O)Nc2ccc(S(=O)(=O)O)c3cc(S(=O)(=O)O)cc(S(=O)(=O)O)c23)cc1NC(=O)c1cccc(NC(=O)Nc2cccc(C(=O)Nc3cc(C(=O)Nc4ccc(S(=O)(=O)O)c5cc(S(=O)(=O)O)cc(S(=O)(=O)O)c45)ccc3C)c2)c1` (tested in a mixture with another compound), the TGI in [1], in [2], in assay [3], in [4], in assay [5] and in assay [6] was above 50 µM throughout. Besides, the TGI in [7], in [8] and in [10] was above 50 µM throughout.

Take `O=C(OCCC12CC3CC(CC(C3)C1)C2)c1ccc(NCc2cc(O)ccc2O)cc1`: the TGI in assay [1] is 0.35 µM; in assay [2] it was 4.9 µM; in assay [3] it was 6.56 µM; in assay [4], 3.84 µM; in assay [5], 1.11 µM; in [6], 3.53 µM. The TGI in assay [7] is 0.626 µM; in [8], 10.6 µM; in assay [9], 4.65 µM; in [10], 0.584 µM.

For `C#CCn1c(=O)c(Cl)cn(/C(=C/C(=O)OCC)C(=O)OCC)c1=O`, the TGI came out at 12.6 µM in assay [1]; 4.18 µM in [2]; 5.46 µM in assay [3]; 35.8 µM in assay [4]; 7.37 µM in assay [5]; 25.2 µM in assay [6]. The TGI in assay [7] is 11.7 µM; in [8] it was 7 µM; in [9], 8.09 µM; in assay [10], 5.27 µM.

On to `CC(=O)NC(Cc1ccc(OP(=O)(OCc2ccc([N+](=O)[O-])o2)N(C)CCCCCl)cc1)C(=O)NC(C)c1ccc(OCC2CCCCC2)c(C(N)=O)c1` (stereo not given), for which the TGI in assay [1] was 12 µM; in assay [2], 5.68 µM; in [3], 14.2 µM; in assay [4], 4.81 µM; in [5] it was above 100 µM; in [6] it was above 100 µM. Also, the TGI in assay [7] was 5.04 µM; in assay [8], above 100 µM; in assay [9], 32 µM; in assay [10], 6.31 µM.

In the case of `COC(=O)[C@H](Cc1ccccc1)NP(=O)(O)OCC1C=CC(n2cc(C)c(=O)[nH]c2=O)O1` (stereo not given in full), the TGI in assay [1], in assay [2], in assay [3], in assay [4], in [5] and in assay [6] was above 100 µM in each case. Also, the TGI in assay [7], in assay [8], in assay [9] and in [10] was above 100 µM each time.

On to `CC(NC(C#N)CC12CC3CC(CC(C3)C1)C2)c1ccccc1` (stereo not given), for which the TGI in [1] is above 100 µM; in assay [3], above 100 µM; in assay [4] it was above 100 µM; in [5], above 100 µM; in [6], above 100 µM; in assay [7], 71.9 µM. The TGI in assay [8], in [9] and in assay [10] was above 100 µM in each case.

As for `N#Cc1ccc(Oc2nc3ccc(C(F)(F)F)cc3nc2-c2ccccc2)cc1`, the TGI in assay [1] was 32.2 µM; in assay [2] it was 77.8 µM; in [3] it was 35.7 µM; in assay [4] it was 33.8 µM; in [5], 44.3 µM; in assay [6], 28.1 µM. For the same compound, the TGI stood at 44.8 µM in [7], 55.9 µM in [8], 33.6 µM in [9] and 38.5 µM in assay [10].

As to `C#CC(O)/C=C/C(O)CCCC(O)CC#CC(O)C#CC(O)CCCC(O)/C=C/CCCC(=O)CCCCCCCCCCCCCCCC(O)C(O)C#CC(=O)O` (stereo not given), the TGI is 17.5 µM in [1]; above 50 µM in assay [2]; above 50 µM in assay [4]; above 50 µM in [5]; above 50 µM in assay [6]; above 50 µM in assay [8]. Besides, the TGI in [9] and in [10] was above 50 µM each time.

On to `Cc1nnc(-n2c(O)cc(=O)n(-c3ccccc3)c2=S)nc1/C=C/c1ccc(N(C)C)cc1`, for which the TGI was 8.33 µM in assay [1]; above 58.5 µM in assay [2]; above 52.9 µM in assay [3]; 23.8 µM in [4]; above 57 µM in assay [5]; 13.5 µM in [6]. The TGI is 49.9 µM in assay [8], above 56.5 µM in [9] and above 60.7 µM in assay [10].

For `c1ccc(N=C2SC3=NCCN3C2=Nc2ccccc2)cc1`, the TGI in [1] is 30.4 µM; in [2], 32.2 µM; in assay [4], 43 µM; in assay [5], 38.2 µM; in assay [6], 61.4 µM; in assay [7], 36 µM. Besides, the values for the TGI in [8] and in [10] were above 100 µM and 44.4 µM, respectively.

`CCSc1nc(N)c2c(-c3ccccc3)c3c(nc2n1)CCC3`: the TGI in assay [2], in assay [3], in [4], in assay [5], in assay [6] and in [7] was above 100 µM throughout. The TGI in assay [8], in assay [9] and in assay [10] was above 100 µM each time.

As to `CC(C)OC(=O)[C@@H](O)[C@H](CO)C1=CC([Si](C)(C)c2ccccc2)=CON1`, the TGI in [2], in assay [3], in assay [4], in assay [5], in [6] and in assay [7] was above 100 µM in each case. Besides, the TGI in assay [8], in assay [9] and in [10] was above 100 µM each time.

On to `Nn1c(Cc2ccccc2)n[nH]c1=O`, for which the TGI in assay [1], in [3], in [4], in assay [5], in assay [6] and in assay [7] was above 100 µM throughout. For the same compound, the TGI in assay [8], in assay [9] and in [10] was above 100 µM throughout.

In the case of `Cc1cc2nc(N3C(=O)/C(=C/c4ccc(Cl)cc4)N=C3c3ccccc3)sc2cc1C`, the TGI in assay [2] was 57.9 µM; in assay [3] it was above 100 µM; in assay [4], 30.7 µM; in [5], above 100 µM; in assay [6], above 100 µM; in [7], 50 µM. The TGI in assay [8], in assay [9] and in assay [10] was above 100 µM in each case.

As for `NC(=O)CC(N=C1C(=O)OC(C(O)CO)C1=NC(CC(N)=O)C(=O)O)C(=O)O` (stereo not given), the TGI in assay [1], in assay [2], in [3], in assay [4], in assay [5] and in assay [6] was above 100 µM each time. For the same compound, the TGI in assay [8], in assay [9] and in assay [10] was above 100 µM throughout.

Consider `O=[N+]([O-])c1ccc2c(c1)c(S(=O)(=O)O)cc1nonc12`, for which the TGI in assay [1], in [3], in assay [4], in assay [5], in assay [6] and in assay [7] was above 100 µM each time. The TGI in assay [8], in assay [9] and in [10] was above 100 µM in each case.

Turning to `c1ccc(-c2cc(-c3cccs3)c(-c3cccs3)o2)cc1`, the TGI in [2], in [3], in assay [4], in assay [5], in assay [6] and in assay [7] was above 100 µM in each case. The TGI in assay [8], in assay [9] and in [10] was above 100 µM in each case.

For `NC(=O)c1nnsc1NC=O`, the TGI in assay [1], in [2], in [3], in assay [4], in [5] and in assay [6] was above 100 µM each time. For the same compound, the TGI in [8] and in assay [10] was above 100 µM in each case.

In the case of `c1ccc2c(c1)CC1COc3ccccc3C1O2` (stereo not given), the TGI in assay [1], in [3], in assay [4], in assay [5], in assay [6] and in assay [7] was above 100 µM each time. Besides, the TGI in assay [8], in assay [9] and in [10] was above 100 µM each time.

With `Cc1nc2ccccc2n1Cc1nnc(N)o1`, the TGI in assay [1] was above 100 µM; in [2], above 100 µM; in [3], above 100 µM; in [4], 21.3 µM; in [6], above 100 µM; in assay [7], above 100 µM. Further, the TGI in assay [8], in assay [9] and in [10] was above 100 µM each time.

Turning to `CC(=O)OCC1=C(C)C[C@H]([C@@H](COC(C)=O)C2CCC3C4C[C@H]5O[C@]56CC=CC(=O)[C@]6(C)C4CC[C@@]32C)OC1=O` (stereo not given in full), the TGI came out at 0.592 µM in assay [1]; 1.12 µM in assay [2]; 0.322 µM in assay [3]; 0.721 µM in assay [4]; 2.64 µM in assay [5]; 0.296 µM in assay [6]. Moreover, the TGI was found to be 0.553 µM in assay [7], 19.2 µM in assay [9] and 1.41 µM in [10].

On to `CSc1nc2c(=O)n(-c3ccccc3)c(=S)n(-c3ccccc3)c2s1`, for which the TGI in assay [1] is above 100 µM; in assay [2], 94.4 µM; in assay [3], above 100 µM; in assay [4] it was above 100 µM; in [6], above 100 µM; in assay [7], above 100 µM. For the same compound, the TGI in [8], in assay [9] and in [10] was above 100 µM in each case.

Consider `c1ccc2nc(CCC3CCCCN3)ccc2c1` (stereo not given), for which the TGI in [1], in assay [2], in assay [3], in [4], in [5] and in assay [6] was above 100 µM each time. The TGI in assay [8], in assay [9] and in assay [10] was above 100 µM each time.

With `CC(=O)OCC1OC(O/C=C(\CN=[N+]=[N-])C(C)=O)C(OC(C)=O)C(OC(C)=O)C1OC(C)=O` (stereo not given), the TGI worked out at 5.08 µM in assay [1]; 16.9 µM in assay [3]; 26.7 µM in assay [4]; 10.1 µM in [5]; 18.9 µM in [6]; 28.7 µM in assay [7]. For the same compound, the TGI in assay [8] is 23.6 µM; in [9] it was 19.1 µM; in assay [10], 13.4 µM.

With `O=C1C(NCCN2CCOCC2)=C(Cl)C(=O)c2ncccc21`, the TGI in assay [2] came to 1.4 µM; in assay [3], 1.01 µM; in assay [4], 0.343 µM; in [6], 1.52 µM; in [7] it was 5.48 µM; in assay [9] it was 2.78 µM. The TGI in assay [10] is 3.14 µM.
